For data set [1], the target named is T1, human OCT2 (Homo sapiens, UniProt O15244).
T1 sequence (O15244 1-555): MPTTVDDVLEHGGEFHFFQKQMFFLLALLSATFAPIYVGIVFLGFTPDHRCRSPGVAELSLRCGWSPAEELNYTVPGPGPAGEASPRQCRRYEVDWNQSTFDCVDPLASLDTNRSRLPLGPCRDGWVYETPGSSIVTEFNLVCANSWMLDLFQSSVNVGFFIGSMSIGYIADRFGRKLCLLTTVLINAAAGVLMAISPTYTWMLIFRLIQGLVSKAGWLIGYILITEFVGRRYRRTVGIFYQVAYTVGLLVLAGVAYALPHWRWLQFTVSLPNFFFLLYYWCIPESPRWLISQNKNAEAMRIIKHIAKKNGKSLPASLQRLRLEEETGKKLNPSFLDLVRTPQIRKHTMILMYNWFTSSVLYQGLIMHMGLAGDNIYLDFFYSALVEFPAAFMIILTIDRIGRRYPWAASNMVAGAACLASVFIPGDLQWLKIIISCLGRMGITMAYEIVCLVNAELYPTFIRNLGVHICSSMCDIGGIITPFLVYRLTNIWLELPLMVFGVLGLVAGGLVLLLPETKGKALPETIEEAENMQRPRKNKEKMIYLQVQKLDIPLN
Briefly: Uptake trans-stimulation assay of OCT2-mediated DiASP uptake in HEK-OCT2 cells. In kind it is cell-based. The arrangement: host or cells: HEK293 (HEK-OCT2). Particulars: for Trans-modulation of OCT2-mediated DiASP uptake (in words): HEK-OCT2 cells preloaded 30 min with substrate, 0.01–10 mM or 0.1–100 µM range. The procedure:
Uptake trans-stimulation assays were performed as schematically depicted in Figure 4.
Figure 4 Schematic representation of the various steps of the trans-stimulation assay performed for investigating OCT2 substrates (created with biorender.com). Step 1 corresponds to the initial incubation of cells without (Control) or with candidate substrate for 30 min at 37 °C. Step 2 consists of the incubation of cells with the reference tracer substrate (DiASP) for 5 min at 37 °C. Step 3 is the measurement of cellular accumulation of DiASP through spectrofluorimetry.
(§1) They were cultured in Dulbecco’s modified Eagle medium (DMEM) (Life Technologies, Carlsbad, CA, USA), supplemented with 10% (vol/vol) fetal calf serum, 10 IU/mL penicillin, 10 μg/mL streptomycin, 1% non-essential amino acids, and 1 μg/mL insulin, as already reported.
OCT2 trans-stimulation assays were performed through monitoring cellular uptake of the tracer substrate DiASP. As schematically depicted in Figure 4, HEK-OCT2 cells were first incubated in the absence (control) or presence of different concentrations of OCT2 substrates for 30 min at 37 °C in the transport assay medium described above. After washing with PBS, cells were re-incubated with 10 µM DiASP for 5 min. Cellular accumulation of the fluorescence dye was next determined by spectrofluorimetry, as reported above. Data were commonly expressed as % of DiASP uptake in control cells, set at 100%, or as fluorescence arbitrary units (FAU)/mg protein.

Data set [2] concerns the target T1, human OCT2. The data set is described as follows: Cis-inhibition of OCT2-mediated DiASP uptake in HEK-OCT2 cells. As for the experimental part:
as §1
Cis-inhibition of OCT2 activity was analysed as previously described. Briefly, HEK-OCT2 cells were incubated with 10 µM DiASP, in the absence (control) of the presence of 100 µM amitriptyline (used here as a reference inhibitor of OCT2 activity) or of various concentrations of the OCT2 substrates, for 5 min. The transport assay medium consisted of 5.3 mM KCl, 1.1 mM KH2PO4, 0.8 mM MgSO4, 1.8 mM CaCl2, 11 mM dextrose, 10 mM HEPES, and 136 mM NaCl, adjusted to pH = 7.4. Next, cells were washed with phosphate-buffered saline (PBS) and lysed in distilled water. Intracellular accumulation of DiASP was then determined by spectrofluorimetry using a PerkinElmer Enspire spectrofluorometer (Waltham, MA, USA); excitation and emission wavelengths were 485 nm and 607 nm, respectively. DiASP accumulation values were thereafter normalized to total protein content, determined by the Bradford method.
IC50 values of OCT2 substrates towards OCT2-mediated uptake of DiASP and the corresponding 95% confidence intervals were determined from nonlinear regression of concentration-response data, based on the four-parameter logistic function. They were calculated using Prism 9.3 software (GraphPad Software, San Diego, CA, USA), through the following Equation (2):(2) A = 100/1 + 10^OCT2 substrate − LogIC50 × Hill slope where A = the percentage of transporter activity for a given concentration of OCT2 substrate determined as described in Equation (1), [OCT2 substrate] = OCT2 substrate concentration in the transport assay medium, and Hill slope = a coefficient describing the steepness of the curve.

The next data set concerns OCT3 (SLC22A3). The arrangement: method as in PMID 12538837. Particulars: cited from earlier work.
Another data set has as its system OCT2. The following applies: cited from earlier work; for Trans-stimulation of OCT2 activity: radiolabelled MPP+ as tracer substrate; for Trans-stimulation of OCT2-mediated MPP+ uptake: MPP+ as tracer.
For another data set, the system named is HEK-MOCK cells. The data set is described as follows: Trans-stimulation assay of DiASP uptake in control HEK-MOCK cells. It is filed as cell-based, human. Particulars: data not shown.
Setting [3] is: HEK-OCT2 cells preloaded 30 min 37 °C, washed, then 10 µM DiASP 5 min.
[4] abbreviates: read-out: IC50 towards OCT2-mediated uptake of DiASP (cis-inhibition), HEK-OCT2 cells, 10 µM DiASP, 5 min, 37 °C, 95% CI in brackets.

Here are results for 15 compounds from article PMC8657912, “Substrate-Dependent Trans-Stimulation of Organic Cation Transporter 2 Activity” (International Journal of Molecular Sciences, 2021).

Usually IC50 stands for the concentration at which inhibition is half-maximal.

Read-outs that look alike come from different tables or passages of the source.

Regarding `CC(=O)OCC[N+](C)(C)C` [Acetylcholine, acetylcholine], the “Trans-modulation of OCT2-mediated DiASP uptake (in words)” value (“Trans-modulation” for short) at human OCT2 [1] is “trans-stimulate”. The IC50 against human OCT2 [2] is 530 µM.
For `NCCCCN=C(N)N` [Agmatine, agmatine], in the data set on OCT3 (SLC22A3), the “Trans-stimulation of OCT3 activity” value is listed as “trans-stimulate”. Also, at human OCT2 [1] (setting [3]), the “Loading concentration that significantly trans-stimulates DiASP uptake” value is on record as 0.1 mM and the “Lowest trans-inhibiting concentration towards DiASP uptake” value is recorded as 10 mM. The “Trans-modulation” value on human OCT2 [1] is “trans-stimulate”. Moreover, the IC50 against human OCT2 [2] came out at 410 µM.
`CCN1CCCC1CNC(=O)c1cc(S(=O)(=O)CC)c(N)cc1OC` (centres unmarked) [Amisulpride, amisulpride] had an IC50 against human OCT2 [2] of 40 µM.
`C[N+](C)(C)CCO` [Choline, choline]: the “Loading concentration that significantly trans-stimulates DiASP uptake” value on human OCT2 [1] (setting [3]) amounted to 1 mM. For the same compound, the “Trans-modulation” value at human OCT2 [1] is “trans-stimulate”. Moreover, the “Trans-stimulation of OCT2 activity” value in the data set on OCT2 is given as “trans-stimulate”. Also, half-maximal inhibition at human OCT2 [2] (IC50) required 1330 µM.
On to `CN/C(=N/CCSCc1nc[nH]c1C)NC#N` [Cimetidine, cimetidine], for which the “Lowest trans-inhibiting concentration towards DiASP uptake” value on human OCT2 [1] (setting [3]) was 10 mM. For the same compound, on human OCT2 [1], the “Trans-modulation” value is reported as “failed to trans-stimulate”. For the same compound, the “Trans-stimulation of OCT2-mediated MPP+ uptake” value in the data set with OCT2 is on record as “failed to trans-stimulate”. At human OCT2 [2], this compound registered an IC50 of 79.6 µM.
As to `NCCc1ccc(O)c(O)c1` [Dopamine, dopamine], at human OCT2 [1] (setting [3]), the “Lowest trans-inhibiting concentration towards DiASP uptake” value worked out at 10 mM. The same compound had an IC50 against human OCT2 [2] of 2390 µM.
For `CNC[C@H](O)c1ccc(O)c(O)c1` [Epinephrine, epinephrine], the “Lowest trans-inhibiting concentration towards DiASP uptake” value at human OCT2 [1] (setting [3]) was found to be 1 mM. The compound further displayed an IC50 on human OCT2 [2] of 1490 µM.
`Nc1ccn([C@@H]2CS[C@H](CO)O2)c(=O)n1` [Lamivudine, lamivudine]: the “Lowest trans-inhibiting concentration towards DiASP uptake” value at human OCT2 [1] turned out to be 10 mM. Besides, half-maximal inhibition at human OCT2 [2] (IC50) required 1900 µM.
In the case of `C[n+]1ccc(-c2ccccc2)cc1` [MPP^+, 1-methyl-4-phenyl pyridinium], the “Trans-modulation” value on human OCT2 [1] is given as “failed to trans-stimulate”. Besides, in the data set on OCT2, the “Trans-stimulation of OCT2-mediated MPP+ uptake” value is listed as “failed to trans-stimulate”. Besides, at human OCT2 [2] (setting [4]), the IC50 came out at 0.91 µM.
As to `CN(C)C(=N)N=C(N)N` [Metformin, metformin], the “Trans-stimulation of DiASP uptake in control HEK-MOCK cells” value in the data set on HEK-MOCK cells was “failed to significantly trans-stimulate”. The “Trans-modulation” value at human OCT2 [1] was “trans-stimulate”. Moreover, the “Trans-stimulation of OCT2 activity” value in the data set on OCT2 was “trans-stimulate”. The compound further displayed an IC50 on human OCT2 [2] of 1140 µM.
`COCCn1c2c([n+](Cc3cnccn3)c1C)C(=O)c1ccccc1C2=O` [Sepantronium, sepantronium]: at human OCT2 [1] (setting [3]), the “Lowest trans-inhibiting concentration towards DiASP uptake” value is 0.001 mM. Also, on human OCT2 [2], the IC50 was 7.04 µM.
In the case of `NCCc1c[nH]c2ccc(O)cc12` [Serotonin, serotonin], the “Lowest trans-inhibiting concentration towards DiASP uptake” value at human OCT2 [1] (setting [3]) worked out at 1 mM. This compound came in with an IC50 against human OCT2 [2] of 180 µM.
As for `CC[N+](CC)(CC)CC` [TEA, tetra-ethylammonium], the IC50 on human OCT2 [2] (setting [4]) came out at 180 µM.
Take `Cc1ncc(C[n+]2csc(CCO)c2C)c(N)n1` [Thiamine, thiamine]: the “Lowest trans-inhibiting concentration towards DiASP uptake” value at human OCT2 [1] (setting [3]) is given as 10 mM. For the same compound, inhibition against human OCT2 [2] was half-maximal at 270 µM (IC50).
For `CN(C)CCC=C1c2ccccc2CCc2ccccc21` [amitriptyline], the “Effect on metformin-stimulated uptake of DiASP” value at human OCT2 [1] (100 µM amitriptyline during DiASP step, cells preloaded with 10 mM metformin 30 min) is “fully suppressed”. Also, at human OCT2 [2] (100 µM amitriptyline, 10 µM DiASP 5 min 37 °C), the “Effect on uptake of DiASP in HEK-OCT2 cells not preloaded with metformin” value is listed as “abolished”.
